The values that follow come from the supplement of paper PMC10307832.

Assay in all cases: relative viability (nuclei count vs DMSO), 5 days (fraction); higher = more cells survive
Compound in the experiment “NPK76-II-72-1 + OSI-027”: CC1CC(=O)N(C2=CN=C(N=C2N1C3CCCC3)NC4=C(C=C(C=C4)C(=O)NC5CCN(CC5)C)OC)C [NPK76-II-72-1] + COc1cccc2cc(-c3nc([C@H]4CC[C@H](C(=O)O)CC4)n4ncnc(N)c34)[nH]c12 [OSI-027] (partner 0.5 µM)
The procedure, abridged: (§1)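 The day after seeding in 1536-well plates, lung cancer cell lines were treated by pin tool with a single drug, or with a fixed anchor-drug dose together with five library-drug doses (not always all listed) in √10 steps. After 5 days, a combined fix-and-stain solution (final 0.05% Triton X-100, 1% formaldehyde, 1 ug/ml Hoechst) was added. Nuclei counted on 4× images gave relative viability as treated counts over vehicle counts, reported as the median of duplicate plates.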

Compound in experiment [1]: CC1CC(=O)N(C2=CN=C(N=C2N1C3CCCC3)NC4=C(C=C(C=C4)C(=O)NC5CCN(CC5)C)OC)C [NPK76-II-72-1] + O=C(CCCCCCC(=O)Nc1ccccc1)NO [Vorinostat] (partner 1 µM)
The procedure, abridged:
as §1

Compound in the experiment “BI-2536 + Pictilisib”: CC[C@@H]1C(=O)N(C)c2cnc(Nc3ccc(C(=O)NC4CCN(C)CC4)cc3OC)nc2N1C1CCCC1 [BI-2536] + CS(=O)(=O)N1CCN(Cc2cc3nc(-c4cccc5[nH]ncc45)nc(N4CCOCC4)c3s2)CC1 [Pictilisib] (partner 1 µM)
The procedure, abridged: as §1

Compound in the experiment “BI-2536 + Linsitinib”: CC[C@@H]1C(=O)N(C)c2cnc(Nc3ccc(C(=O)NC4CCN(C)CC4)cc3OC)nc2N1C1CCCC1 [BI-2536] + C[C@]1(O)C[C@@H](c2nc(-c3ccc4ccc(-c5ccccc5)nc4c3)c3c(N)nccn32)C1 [Linsitinib] (partner 1 µM)
The procedure, abridged:
as §1

UMC-11: the relative viability was 0.435 in the experiment with NPK76-II-72-1 + OSI-027 (first compound 0.01 µM); 0.424 with NPK76-II-72-1 + OSI-027 (first compound 0.03162 µM); 0.521 with NPK76-II-72-1 + OSI-027 (first compound 0.1 µM); 0.47 with NPK76-II-72-1 + OSI-027 (first compound 1 µM); 0.358 in experiment [1] (first compound 0.01 µM); 0.365 in experiment [1] (first compound 0.03162 µM). For the same cell line, the relative viability in experiment [1] (first compound 0.1 µM) came out at 0.334; in experiment [1] (first compound 0.3162 µM), 0.392; in experiment [1] (first compound 1 µM), 0.309; with BI-2536 + Pictilisib (first compound 0.01 µM), 0.851; in the experiment with BI-2536 + Pictilisib (first compound 0.03162 µM), 0.647; with BI-2536 + Pictilisib (first compound 0.1 µM), 0.11. Also, the relative viability in the experiment with BI-2536 + Pictilisib (first compound 0.3162 µM) turned out to be 0.153; in the experiment with BI-2536 + Pictilisib (first compound 1 µM) it was 0.14; in the experiment with BI-2536 + Linsitinib (first compound 0.01 µM) it was 1.02; with BI-2536 + Linsitinib (first compound 0.03162 µM), 0.967; with BI-2536 + Linsitinib (first compound 0.1 µM), 0.841; with BI-2536 + Linsitinib (first compound 0.3162 µM), 0.207. The relative viability in the experiment with BI-2536 + Linsitinib (first compound 1 µM) turned out to be 0.172.
